According to patent US4450173A, “Compounds and method for treatment or prophylaxis of cardiac disorders” (American Hospital Supply Corporation, priority 1982, dated 1984):
Structures can show the parent of a compound that is named as a salt. Where two headings read alike, the source gives them in different places.

How the values were obtained:
[1] = target: guinea pig tracheal strips (Cavia porcellus, UniProt Q8K4Z4); assay: cell-based; format: cell-based; conditions: for pA2 Trachea: guinea pig trachea, carbachol tension, isoproterenol, 60 minute incubation, pA2 = -log KB; for Kb: read-out: pA2 Trachea (converted)
Method: Each tissue was suspended between a fixed glass rod and a Statham® Universal Transducer connected to a Beckman® recorder. Atria were allowed to beat spontaneously under a loading tension of approximately 0.5 gm. Intrinsic depressant for stimulant activity was determined for each compound by progressively increasing concentrations in the tissue baths at 60-minute intervals. Tissues were not washed between increments. […] Changes in rate in response to isoproterenol were measured in the absence and presence of test compounds. Spiral strips of guinea pig trachea were suspended under 5 gm resting tension and incubated with phentolamine, tropolone and cocaine. Active tension was generated by addition of carbachol (3.0×10^-7 M) and decreases in tension in response to isoproterenol were quantitated. Cumulative concentration-response curves were produced with isoproterenol both before and after 60 minute incubation of test compounds with atria and trachea. The blocking potency of test compounds was estimated by computing pA2 values (-log KB) by the method of Furchgott, The Pharmacological Differentiation of Adrenergic Receptors, Ann. […] A ratio greater than one indicates cardioselectivity.

[2] = system: heart rate response to isoproterenol (β-receptor mediated tachycardia); assay: Duration of β-blockade in vivo in anesthetized dogs, 40-minute infusion; parameters: species or system dog; conditions: for 80% Recovery Time: after 40-minute infusion, normalized to 50% inhibition; for ED50: Canis lupus familiaris, iv, 40 min, read-out: Potency (mg/kg/40 min)
Method: (§1) The duration of β-blockade was determined in vivo using pentobartital-anesthetized dogs instrumented for measurement of heart rate using a Beckman® cardiotachometer triggered electronically by a phasic aortic blood pressure signal. Both vagus nerves were severed in the cervical region and the animals were mechanically ventilated. Two experimental designs were used. The first employed a 40-minute infusion of test compound and the second used a 3-hour infusion of test compound. In the 40-minute model, isoproterenol was infused into a foreleg vein at the rate of 0.5 μg/kg/min to induce a β-receptor mediated tachycardia. Various doses of test compound are then infused into a femoral vein over a period of 40 minutes. This infusion was then terminated and recovery from blockade was quantitated. […] This cumulative dose is expressed as mg/kg and is an indication of potency. The time period required for 80% recovery of heart rate response for each dose of test drug was also measured to quantitate duration of action. […] Test compounds were dissolved in 0.9% NaCl and infused at a rate of 0.05 mL/kg/min or less. In the 3-hour infusion model, bolus doses of isoproterenol (0.4 μg/kg) were used to assess the degree of β-blockade and recovery from β-blockade after termination of the infusion. The doses were spaced at 10-minute intervals and were given before, during and following the infusion of test compounds. The infusion rate was adjusted so that at the end of the 3-hour infusion period the degree of isoproterenol inhibition averaged about 50% of control.

[3] = system: guinea pig right atria and guinea pig tracheal strips; assay: Cardioselectivity, KB tracheal/KB atrial; format: cell-based
Method: Several of the compounds of the present invention were tested for β-blocking activity in vitro using guinea pig right atria and guinea pig tracheal strips mounted in a tissue bath containing oxygenated (95% O2 -5% CO2) Krebs physiological salt solution at 37° C. Each tissue was suspended between a fixed glass rod and a Statham® Universal Transducer connected to a Beckman® recorder. Atria were allowed to beat spontaneously under a loading tension of approximately 0.5 gm. Intrinsic depressant for stimulant activity was determined for each compound by progressively increasing concentrations in the tissue baths at 60-minute intervals. Tissues were not washed between increments. […]. Changes in rate in response to isoproterenol were measured in the absence and presence of test compounds. Spiral strips of guinea pig trachea were suspended under 5 gm resting tension and incubated with phentolamine, tropolone and cocaine. Active tension was generated by addition of carbachol (3.0×10^-7 M) and decreases in tension in response to isoproterenol were quantitated. Cumulative concentration-response curves were produced with isoproterenol both before and after 60 minute incubation of test compounds with atria and trachea. The blocking potency of test compounds was estimated by computing pA2 values (-log KB) by the method of Furchgott, The Pharmacological Differentiation of Adrenergic Receptors, Ann. N.Y. Acad. Sci.; 139: 553-570 (1967). Comparison of blockade of right atrial and tracheal responses to isoproterenol permitted assessment of cardioselectivity of test compounds; […]. A ratio greater than one indicates cardioselectivity. […]

guinea pig right atria = guinea pig right atria (Cavia porcellus, UniProt H0W3H1); assay: β-blocking activity in vitro, guinea pig right atria (rate response to isoproterenol); format: cell-based; conditions: for pA2 Atria: guinea pig right atria, isoproterenol, 60 minute incubation, pA2 = -log KB
Method: Each tissue was suspended between a fixed glass rod and a Statham® Universal Transducer connected to a Beckman® recorder. Atria were allowed to beat spontaneously under a loading tension of approximately 0.5 gm. Intrinsic depressant for stimulant activity was determined for each compound by progressively increasing concentrations in the tissue baths at 60-minute intervals. Tissues were not washed between increments. The maximum concentration showing little or no cardiodepressant activity was chosen for blockade experiments. Changes in rate in response to isoproterenol were measured in the absence and presence of test compounds. Spiral strips of guinea pig trachea were suspended under 5 gm resting tension and incubated with phentolamine, tropolone and cocaine. Active tension was generated by addition of carbachol (3.0×10^-7 M) and decreases in tension in response to isoproterenol were quantitated. Cumulative concentration-response curves were produced with isoproterenol both before and after 60 minute incubation of test compounds with atria and trachea. The blocking potency of test compounds was estimated by computing pA2 values (-log KB) by the method of Furchgott, The Pharmacological Differentiation of Adrenergic Receptors, Ann. […] The degree of cardioselectivity was estimated from the ratio, KB tracheal/KB atrial (10^(pA.sbsp.2^atria-pA.sbsp.2^trachea)). A ratio greater than one indicates cardioselectivity. Test drugs were dissolved in distilled water and added to the bath (30 mL) in a volume of 10 or 100 μL.

[4] = system: heart rate response to isoproterenol; assay: Duration of β-blockade in vivo in anesthetized dogs, 3-hour infusion; parameters: species or system dog; conditions: for ED50: Canis lupus familiaris, iv, 3-hour infusion, read-out: Potency (mg/kg/180 min); for ED50 / % I (Percent inhibition of heart rate response to isoproterenol): bolus isoproterenol 0.4 μg/kg; for 80% Recovery Time: after 3-hour infusion; for % I (Percent inhibition of heart rate response to isoproterenol): end of 3-hour infusion
Method: as §1

[5] = Disappearance in vitro in dog whole blood; format: in vitro ADME; conditions: 50 μg in 1 mL added to 1 mL dog whole blood, 37° C.; read-out: T1/2 Dog Whole Blood
Method: (§2) The rate of disappearance of a compound is expressed as the half-life (T1/2), which is the time period in which one-half of the initial amount of compound tested disappears. In each experiment, 1 mL of a solution containing 50 μg of the test compound was added to 1 mL of whole blood or 1 mL of a 33% (w/v) liver homogenate. […] At the designated time periods, the test mixtures were removed from the incubator and transferred to a 0° C. ice bath. Acetonitrile (2 mL) was immediately added and the mixtures were mixed to stop enzymatic hydrolysis. Zero time samples were prepared by adding 2 mL of acetonrile to denature the proteins prior to addition of the test compounds. […] The half life of each test compound was determined graphically by plotting the decrease in concentration as a function of time.

[6] = Disappearance in vitro in human whole blood; format: in vitro ADME; conditions: 50 μg in 1 mL added to 1 mL human whole blood, 37° C.; read-out: T1/2 Human Whole Blood
Method: as §2

[7] = Disappearance in vitro in dog liver homogenate; format: in vitro ADME; conditions: 50 μg in 1 mL added to 1 mL of 33% (w/v) dog liver homogenate, 37° C.; read-out: T1/2 Dog Liver Homogenate
Method: as §2

[8] = ratio KB tracheal/KB atrial, greater than one indicates cardioselectivity
[9] = read-out: pA2 Atria (converted)

Chain of guinea pig tracheal strips (Q8K4Z4 whole entry): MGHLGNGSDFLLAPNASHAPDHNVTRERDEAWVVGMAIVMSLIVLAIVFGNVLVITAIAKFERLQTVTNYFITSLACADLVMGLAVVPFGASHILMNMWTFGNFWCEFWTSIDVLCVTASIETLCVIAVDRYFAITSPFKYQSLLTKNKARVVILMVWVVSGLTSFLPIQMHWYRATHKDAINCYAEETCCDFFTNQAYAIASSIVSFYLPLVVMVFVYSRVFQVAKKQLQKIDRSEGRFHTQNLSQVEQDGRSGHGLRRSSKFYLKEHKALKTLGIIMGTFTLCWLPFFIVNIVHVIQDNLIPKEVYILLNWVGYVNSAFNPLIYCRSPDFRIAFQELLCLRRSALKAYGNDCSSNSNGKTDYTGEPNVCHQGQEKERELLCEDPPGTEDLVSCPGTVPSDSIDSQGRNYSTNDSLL
Chain of guinea pig right atria (H0W3H1 1-470): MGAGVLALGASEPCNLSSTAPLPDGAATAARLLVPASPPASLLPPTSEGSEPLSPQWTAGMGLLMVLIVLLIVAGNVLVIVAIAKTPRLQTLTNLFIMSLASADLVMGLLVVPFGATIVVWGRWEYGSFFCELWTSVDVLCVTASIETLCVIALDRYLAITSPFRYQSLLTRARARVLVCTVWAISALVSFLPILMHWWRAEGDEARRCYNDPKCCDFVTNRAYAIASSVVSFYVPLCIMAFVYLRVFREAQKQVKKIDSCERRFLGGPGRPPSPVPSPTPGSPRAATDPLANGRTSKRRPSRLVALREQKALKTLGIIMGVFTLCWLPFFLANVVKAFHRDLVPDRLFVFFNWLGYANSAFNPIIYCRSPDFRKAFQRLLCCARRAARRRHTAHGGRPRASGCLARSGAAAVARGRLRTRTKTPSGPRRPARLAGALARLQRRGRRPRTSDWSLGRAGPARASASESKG

CCOC(=O)CNCC(O)COc1ccccc1 (stereo not shown) [Example I, Ethyl N-(2-Hydroxy-3-phenoxypropyl) glycinate Oxalate]
pA2 Trachea [1]: 5.6
Potency (mg/kg/40 min) ([2]; cumulative dose over 40-minute infusion, normalized to 50% inhibition of isoproterenol response, dogs): very low
Cardioselectivity [3, 8]: 1

CCOC(=O)CNCC(O)COc1cccc2ccccc12 (stereo not shown) [Example II, Ethyl N-[[2-Hydroxy-3-(1-naphthoxy]propyl]glycinate Oxalate Hemihydrate]
80% Recovery Time ([2]; dogs): 53 ± 11 min

CCOC(=O)CCNCC(O)COc1ccccc1 (stereo not shown) [Example III, Ethyl 3-[N-[2-Hydroxy-3-phenoxy)propyl]amino]propionate Oxalate]
pA2 Trachea [1]: 5.9
ED50 [2]: 12.6 ± 4.1 mg/kg
80% Recovery Time ([2]; dogs): 29 ± 13 min
Cardioselectivity [3, 8]: 25

CCOC(=O)CCCNCC(O)COc1ccccc1 (stereo not shown) [Example IV]
pA2 Trachea [1]: 6.0

CCOC(=O)C(Cc1ccc(O)cc1)NCC(O)COc1ccccc1 (stereo not shown) [Example V, Ethyl N[(2-Hydroxy-3-phenoxy)propyl]tyrosinate]
pA2 Atria (guinea pig right atria): inactive
pA2 Trachea [1]: inactive

CCOC(=O)CCNCC(O)COc1ccc(Cl)cc1 (stereo not shown) [Example VI, Ethyl 3[N-[3-[4-(chlorophenoxy)-2-hydroxy]propyl]amino]propionate Hydrochloride]
pA2 Trachea [1]: 5.6
Cardioselectivity [3, 8]: 6

CCOC(=O)CCNCC(O)COc1ccc(CCC(=O)OC)cc1.Cl (stereo not shown) [Example VII, Ethyl 3-[N-[2-Hydroxy-3-[4-[2-(methoxycarbonyl)ethyl]phenoxy]propyl]amino]propionate Hydrochloride]
Kb (guinea pig right atria; [9]): 1260 nM
Kb [1]: > 10000 nM
Cardioselectivity [3, 8]: > 8

CC(=O)Nc1ccc(OCC(O)CNC(C)C)cc1 (stereo not shown) [Practolol, reference compound]
80% Recovery Time ([2]; dogs): 61 min

CC(C)NCC(O)COc1cccc2ccccc12 (stereo not shown) [Propranolol, reference compound]
80% Recovery Time ([2]; dogs): 46 min

CCOC(=O)CCNCC(O)COc1ccccc1C(=O)OC (stereo not shown) [VIII, Ethyl 3-[N-[2-Hydroxy-3-[2-(methoxycarbonyl)phenoxy]propyl]amino]propionateOxalate Hemihydrate]
Kb (guinea pig right atria; [9]): 251 nM
ED50 [4]: 27.4 ± 6 mg/kg
80% Recovery Time [4]: 10 ± 2 min
% I (Percent inhibition of heart rate response to isoproterenol) [4]: 53 ± 2%
pA2 Trachea [1]: 6.6
Cardioselectivity [3]: 1.0

Cc1ccccc1OCC(O)CNCCC(=O)Oc1ccc(F)cc1 (stereo not shown) [XIX]
Kb (guinea pig right atria; [9]): 2000 nM

CCOC(=O)CCCNCC(O)COc1ccccc1C (stereo not shown) [XI]
half-life [5]: > 3 h
half-life [6]: 1.95 ± 0.65 h
pA2 Trachea [1]: 6.7
ED50 [2]: 3.1 ± 0.7 mg/kg
80% Recovery Time ([2]; dogs): 15 ± 2 min
Cardioselectivity [3, 8]: 5

Cc1ccccc1OCC(O)CNCCC(=O)Oc1ccccc1 (stereo not shown) [XVIII]
Kb (guinea pig right atria; [9]): 398 nM
ED50 [4]: 54 ± 14 mg/kg
80% Recovery Time [4]: > 60 min
% I (Percent inhibition of heart rate response to isoproterenol) [4]: 54 ± 8%

COC(=O)CCNCC(O)COc1ccccc1C (stereo not shown) [XVII]
half-life [5]: 0.867 ± 0.15 h
ED50 [4]: 4.4 mg/kg
80% Recovery Time [4]: 27 ± 4 min
% I (Percent inhibition of heart rate response to isoproterenol) [4]: 56 ± 4%
half-life [7]: 9 ± 8 min
half-life [6]: 2.47 ± 0.0333 h
pA2 Trachea [1]: 7.0
Cardioselectivity [3]: 1.6

COC(=O)c1ccc(CNCC(O)COc2ccccc2C)cc1 (stereo not shown) [XVI]
Kb [1]: 200 nM
Cardioselectivity [3, 8]: 1.6

CCOC(=O)c1ccc(CNCC(O)COc2ccccc2C)cc1 (stereo not shown) [XV]
half-life [5]: > 3 h
half-life [7]: 9 ± 6 min
half-life [6]: > 3 h
Kb [1]: 1260 nM
Cardioselectivity [3]: 5

CCOC(=O)CCNCC(O)COc1cccc(C)c1 (stereo not shown) [XXIII]
pA2 Trachea [1]: 6.5
Cardioselectivity [3, 8]: 1.6

CCOC(=O)CCNCC(O)COc1cccc(OC)c1 (stereo not shown) [XXIV]
pA2 Trachea [1]: 6.7
Cardioselectivity [3, 8]: .5

COC(=O)CCNCC(O)COc1cccc2ccccc12 (stereo not shown) [XXIX]
Kb [1]: 25.1 nM
Cardioselectivity [3, 8]: 0.3

COc1ccc(CCOC(=O)CCNCC(O)COc2ccccc2C)cc1OC (stereo not shown) [XXVIII]
pA2 Atria (guinea pig right atria): 7.0
ED50 [4]: 168 mg/kg
80% Recovery Time [4]: > 60 min
% I (Percent inhibition of heart rate response to isoproterenol) [4]: 85%
pA2 Trachea [1]: 6.6
Cardioselectivity [3]: 2.5

CCOC(=O)CNCC(O)COc1ccccc1C (stereo not shown) [XXVII]
pA2 Trachea [1]: 6.2
Cardioselectivity [3, 8]: 0.5

CCOC(=O)CCNCC(O)COc1c(C)cccc1C (stereo not shown) [XXVI]
Kb (guinea pig right atria; [9]): 794 nM

Cc1ccccc1OCC(O)CNCCC(=O)OCC(F)(F)F (stereo not shown) [XX]
Kb (guinea pig right atria; [9]): 2000 nM
